Experimental data as given in US20230210877A1, “A Composition for Management of COVID-19 and Associated Disorders” (priority 2020, published 2023).

System: isoproterenol induced myocardial infarction
Assay: isoproterenol induced myocardial infarction rat model
Format: in vivo
Design: TNF-A: unit not given here
Conditions: rats, isoproterenol 90 mg/kg bwt. + treatment 138 mg/kg bwt. (total)

| Structure (SMILES) | GOT | GPT | LDH | TNF-A |
| --- | --- | --- | --- | --- |
| O=C(O)[C@H]1O[C@@H](Oc2cc3oc(-c4ccccc4)cc(=O)c3c(O)c2O)[C@H](O)[C@@H](O)[C@@H]1O [Biacalin, Baicalin] | 110.37 | 79.57 | 138.67 | 438.58 |
| O=C(O[C@@H]1Cc2c(O)cc(O)cc2O[C@@H]1c1cc(O)c(O)c(O)c1)c1cc(O)c(O)c(O)c1 [EGCG, Epigallocatechin gallate] | 139.15 | 75.30 |  | 408.29 |
| O=c1c(O)c(-c2ccc(O)c(O)c2)oc2cc(O)cc(O)c12 [Quercetin] | 103.33 | 90.47 | 121.00 | 411.70 |
